# Data from a melting point compilation (Tetko et al.).
row,melting point,Structure (SMILES)
1,93 °C,N#Cc1ccncc1Br
2,346 to 350 °C,O=C(O)c1ccc(Cc2ccc(C(=O)O)cc2)cc1
3,104 °C,c1ccc(-c2ccc3ccccc3c2)cc1
4,163 to 168 °C,O=C(O)c1cnc(Cl)c(Cl)c1
5,195 to 196 °C,C=C1C(C)CCC2(C)C3=C(C(=O)C4(CC4C)C(O)C3=O)C(OC(C)=O)C(O)C12 (stereo not given)
6,224 °C,Cc1cc(C(=O)O)cc(C)c1[N+](=O)[O-]
7,231 to 234 °C,Cc1ccc(S(=O)(=O)NCCCC[C@H](N)C(=O)O)cc1
8,218 to 219 °C,CC1=NN(c2ccccc2)C(=O)C1=C(Br)C1C(=O)N(c2ccccc2)N=C1C (stereo not given)
9,188 °C,CC(C)(C)N(NC(=O)c1ccccc1)C(=O)c1ccccc1I
10,-100 °C,C=COCC(CC)CCCC (stereo not given)
11,232 °C,COC(=O)c1nc(Cl)c(Cl)nc1N
12,75 to 80 °C,CCOC(=O)c1c(C=O)c(C)n(C2CC2)c1C
13,92 °C,CC1(C)OCC2OC3(C(=O)O)OC(C)(C)OC3C2O1 (stereo not given)
14,23 to 25 °C,Cc1cc(Cl)ccc1[N+](=O)[O-]
15,52 to 53 °C,CC(C)(C)OC(=O)N1CCN(Cc2ccc(CO)cc2)CC1
16,98 to 99 °C,CCOC(=O)c1[nH]nc(C)c1C(=O)OCC
17,110 to 114 °C,C=C1C2CC(CC2NS(=O)(=O)c2ccc(C)cc2)C1(C)C (stereo not given)
18,41 °C,c1ccc(C2OCCCO2)cc1
19,143 °C,COC(=O)CCc1ccc2c(c1)NC(=O)CC2
20,73 °C,Nc1cc(C(F)(F)F)ccn1
21,43 °C,COc1ccc(C2(C#N)CCCCC2)cc1
22,210 to 211 °C,O=C(Nc1ccccc1CCCCc1ccccc1NC(=O)c1ccccc1)c1ccccc1
23,163 to 164 °C,CCC1C(C=NO)=NC(C)(C)N1O (stereo not given)
24,159 to 160 °C,CSc1nc(N)c(C(C)=O)s1

row,melting point,Structure (SMILES)
1,163 °C,Oc1cncc(F)c1
2,120 °C,C[Si](C)(C)C#Cc1ccc(C#C[Si](C)(C)C)cc1
3,-18.5 °C,C[Si](C)(C)C=C[Si](C)(C)C
4,106 °C,O=C(CCBr)N1CCN(C(=O)CCBr)CC1
5,61 °C,CCN(CC)CCOC(=O)c1ccc(N)cc1
6,195 to 196 °C,O=[N+]([O-])c1cc([N+](=O)[O-])c(C(/C(=N/Nc2ccccc2)c2ccccc2)c2ccccc2)cc1Cl (stereo not given)
7,160 to 163 °C,COC(=O)c1ccc(-c2nc(C)no2)cc1
8,92 to 94 °C,O=C(CS)Nc1ccc(F)cc1
9,156 °C,O=C(c1ccccc1)C(Br)C(Br)c1ccccc1 (stereo not given)
10,148 °C,Cc1cccc(C)c1NC(=O)CCl
11,201 °C,CC1(C)C2CCC1(C)C(C(=O)O)OC2=O (stereo not given)
12,185 °C,O=C1/C(=N/Nc2ccc(F)cc2)C(C(F)(F)F)=NN1c1ccccc1
13,243 to 245 °C,NC(CC(=O)O)c1ccc(Cl)cc1 (stereo not given)
14,40.5 °C,CC1=CCC(C(=O)O)C1(C)C (stereo not given)
15,188 to 193 °C,N#CCCNCC(=O)O
16,38 °C,c1ccc2nnccc2c1
17,86 °C,COc1cccc(N(C)C(=S)Oc2cccc(C(C)(C)C)c2)n1
18,54 to 55 °C,O=Cc1cccc2c1OCC2
19,304 °C,CC(=O)Oc1c(-c2cccc(-c3[nH]c4cc([N+](=O)[O-])ccc4c3OC(C)=O)c2)[nH]c2cc([N+](=O)[O-])ccc12
20,50 to 52 °C,CCOC(=O)c1c2ccccc2nn1C
21,144 to 146 °C,O=[N+]([O-])c1ccc(-c2ccc([N+](=O)[O-])cc2Cl)cc1
22,150 °C,Cc1nc2sccn2c1C(=O)NN
23,126 °C,COc1ccc2ccccc2c1C
24,68 to 70 °C,COC(=O)[C@H](CCC(=O)O)NC(=O)OCc1ccccc1

row,melting point,Structure (SMILES)
1,22 °C,O=C(CBr)c1cccc(C(F)(F)F)c1
2,285 to 286 °C,Nc1cc(O)nc(N)n1
3,71 to 72 °C,CC(C)(C)OC(=O)NCc1ccsc1Br
4,122 °C,Cc1cc(-c2ccccc2)nnc1NCCN1CCOCC1
5,160 °C,CS(=O)(=O)c1ccc(S(=O)(=O)Cl)cc1
6,145 to 146 °C,COc1ccccc1-c1ccc(C=C(C(C)=O)C(C)=O)o1
7,6 °C,CCCCCCCCC=CCCCCCCCCO
8,55 °C,CC(=O)Oc1cccc(O)c1
9,232 °C,NC(CCS)C(=O)O (stereo not given)
10,85 to 87 °C,C[Si](C)(C1C=Cc2ccccc21)C1C=Cc2ccccc21 (stereo not given)
11,242 °C,CC1=NNC(=O)C1=Cc1c(O)c2cccc(C)c2[nH]c1=O
12,164 °C,COc1ccc2c(C(=S)N(C)CC(=O)O)cccc2c1C(F)(F)F
13,49 °C,O=C(N(Cc1ccccc1)Cc1ccccc1)C(F)(F)C(F)(F)C(F)(F)C(F)(F)C(F)(F)C(F)(F)C(F)(F)C(F)(F)F
14,69 °C,CCCn1cnc2c1c(=O)n(CCCCC(C)=O)c(=O)n2C
15,101 to 105 °C,O=C1NCC(CCl)O1 (stereo not given)
16,97 °C,COC(=O)c1ccc(OC)c(Br)c1
17,-21 °C,O=Cc1ccccn1
18,51 °C,C/C(=C\C(=O)c1ccc(F)cc1)c1ccc(F)cc1
19,49 °C,O=C1NCCN1CCO
20,172 °C,O=Nc1c(Cl)cccc1Cl
21,135 to 136 °C,CC(=O)OC1CCC2(C)C(CCC3C4=C(CCC32)C(C)(C#Cc2ccccc2)CC4)C1 (stereo not given)
22,85 to 89 °C,CC1(C)OC2C(=O)OC(CBr)C2O1 (stereo not given)
23,56 °C,CN(C)CCC=C1c2ccccc2CSc2ccccc21
24,158 °C,O=C(C=Cc1ccc(Cl)cc1)c1ccc(Cl)cc1

row,melting point,Structure (SMILES)
1,183 °C,Nc1c(F)c(F)c(C(=O)O)c(F)c1F
2,142 °C,NNc1c(Cl)cc(Cl)cc1Cl
3,-20 °C,CCCCCCCCCI
4,64 to 66 °C,O=C(CBr)C(c1ccccc1)c1ccccc1
5,137 °C,COc1ccc(C(O)(c2ccccc2OC)c2ccc(OC)cc2OC)c(OC)c1
6,51 °C,O=C(Cl)C12CC3CC(CC(C3)C1)C2
7,100 °C,CC(C)(Oc1ccc(Cl)cc1)C(=O)OCCOC(=O)c1cccnc1
8,163 to 165 °C,Oc1ccc(C=Nc2ccccc2N=Cc2ccc(O)cc2O)c(O)c1
9,41 to 42 °C,Nc1ccccc1OCCN1CCOCC1
10,190 °C,CS(=O)(=O)c1nn(-c2ccccc2)c(N)c1C#N
11,71 °C,O=Cc1ccc(Br)c(Br)c1
12,135 °C,O=C(O)c1cc(F)ccc1[N+](=O)[O-]
13,47 °C,Cc1cc(C)c(CS)c(C)c1
14,253 to 256 °C,O=CNc1ccc(C2=NNC(=O)CC2)cc1
15,158 °C,O=C(O)CCSSCCC(=O)O
16,174 to 175 °C,Cc1nccc(-c2cccc(S(=O)(=O)Cl)c2)n1
17,340 °C,O=C(C=Nc1ccccc1)c1cc(C(=O)C=Nc2ccccc2)cc(C(=O)C=Nc2ccccc2)c1
18,57 °C,COC(=O)Cc1ccc(O)cc1
19,162 °C,O=C(OCC(COC(=O)c1cccnc1)(COC(=O)c1cccnc1)COC(=O)c1cccnc1)c1cccnc1
20,188 °C,COc1ccc(/C=N/n2c(S)nnc2C(F)(F)F)cc1
21,90 to 94 °C,CCOC(=O)/C(C#N)=C(/SC)N(C)C
22,70 °C,CCOC(=O)C=CC(=O)O
23,88 °C,COC(=O)C1Cc2ccccc2C(=O)C1C(=O)OC (stereo not given)
24,92 °C,Cc1c(CCl)c(C)c2c(c1CCl)CC2

row,melting point,Structure (SMILES)
1,91 °C,COc1cc(F)c(C#N)cc1F
2,128 to 133 °C,O=C(Oc1ccccc1)c1cc2ccccc2cc1O
3,170 °C,C=CC1(C)CC(OC(=O)CO)C2(C)C(C)CCC3(CCC(=O)C32)C(C)C1O (stereo not given)
4,99.5 °C,COc1ccc(C(=O)/C=C/c2cccc(OC)c2OC)c(O)c1
5,151 °C,Nc1ccc(O)cc1[N+](=O)[O-]
6,185 °C,Cn1c(/C(C#N)=C/c2c(Cl)cccc2Cl)nc2ccccc21
7,69 to 71 °C,COC(=O)c1sccc1NN
8,91 to 93 °C,O=C(Oc1c(F)c(F)c(F)c(F)c1F)c1cc(C(F)(F)F)ccc1N1CCOCC1
9,58 to 60 °C,COC(=O)c1scc(C)c1N=C=S
10,46 to 50 °C,CC(C)C1COC2(C)C=CC(=O)N12 (stereo not given)
11,32 °C,C#CC(O)COc1cccc(C(F)(F)F)c1 (stereo not given)
12,68 to 70 °C,NC(=S)c1ccccc1Cl
13,-70 °C,CCCCC(CC)CO (stereo not given)
14,151 to 154 °C,CCOC(=O)c1cc(O)c(O)c(O)c1
15,147 °C,CC(C)(C)c1ccc2cc3ccccc3cc2c1
16,238 °C,Oc1ncnc2cccc(F)c12
17,-128 °C,FC(F)(F)C(F)(F)C(F)(F)C(F)(F)F
18,41 to 44 °C,Cc1oc(C(C)(C)C)cc1C(=O)Cl
19,134 to 137 °C,Fc1cc(Br)c(I)c(Br)c1
20,190 to 192 °C,S=C1NC2=C(CCCC2=Cc2ccccc2)C(c2ccccc2)N1 (stereo not given)
21,129 °C,CCCC1C2=C(OC(=O)C1(C)C)c1ccc(OC)cc1CC2 (stereo not given)

row,Structure (SMILES),melting point
1,c1ccc2c(c1)oc1ccccc12,86.5 °C
2,CCCCOCN(C(=O)CCl)c1c(CC)cccc1CC,-0.55 °C
3,CN1C2CCC1CC(OC(=O)c1ccccc1)C2 (stereo not given),49 °C
4,BrC(Br)c1ccccc1C(Br)Br,116 °C
5,CC(=O)Oc1cccc(C#N)c1,60 °C
6,Cc1cc(Cl)ccc1N,30.3 °C
7,OCC1OC(Oc2c[nH]c3ccc(Br)c(Cl)c23)C(O)C(O)C1O (stereo not given),249 to 251 °C
8,C=CCC1(CC(C)O)C(=O)NC(=O)NC1=O (stereo not given),158 °C
9,CCC1(CC)C(=O)CCNC1=O,102 °C
10,CCOC(=O)c1cn2nc(OP(=S)(OCC)OCC)cc2nc1C,51 °C
11,Clc1ccc(Cl)c(CBr)c1,41 °C
12,O=[N+]([O-])N1CCCCC1,-5.5 °C
13,Cc1ccc2ccccc2c1N,32 °C
